Assay results published in US6833249B2, “Quick and sensitive method of quantifying mycolic acid to develop anti-microbial agents and a diagnostic kit thereof” (Council of Scientific and Industrial Research, priority 2002, dated 2004).

System: mycolic acid biosynthesis
Test: spectrophotometric assay of mycolic acid (carbol fuchsin complex) from treated M. smegmatis cells
Assay type: cell-based, Mycobacterium smegmatis
Conditions: for production/synthesis of mycolic acid: Mycobacterium smegmatis treated with the substance, result in words; for absorbance at 495.89 nm: mycolic acid-carbol fuchsin complex in hexane, M. smegmatis grown 48 hrs at sub-lethal concentration (½ MIC): extract 312 μg/ml, thebaine 150 μg/ml, isoniazid 1 μg/ml, untreated control 1.4885
Excerpt: Mycolic acids are branched, β-hydroxy fatty acids which occur in the cell wall of Corynebacterium, Nocardia and Mycobacterium. Their molecular size varies with the genus, i.e., from 30, 50, 80-carbon atoms in the order described above. Because of the correlation between genus and mycolic acid size, the test for this biochemical marker is done in the early stage of the identification of unknown actinomycetes. The method followed in this invention for the extraction of mycolic acid is according to Minniken et al. (1975). After proper growth of the bacteria, the culture is centrifuged at 5000 RPM for 5 minutes and lyophilized. Dry bacteria (100 mg) are mixed with methanol (5 ml), Toluene (5 ml) and concentrated sulphuric acid (0.2 ml) in a 20-ml screw cap tube (poly tetra fluoro ethylene lined). The contents of the tube are mixed thoroughly and methanolysis is allowed to proceed for 12-16 hours at 75° C. (stationary incubation). The reaction mixture is allowed to cool and mycolic acid is extracted by adding 1 ml of hexane. After vigorous mixing the mixture is allowed to settle and the upper hexane layer containing mycolic acid is collected. Samples of the hexane extract were spotted on TLC coated with Merck silica gel H (0.5 mm), along with standard mycolic acid and the chromatogram is developed in petroleum ether: diethyl ether (85:15).
By using this method the mycolic acid produced by the control was quantified as well as treated cells of M. smegmatis with different plant extracts and compounds. Some of the compounds are known to inhibit mycolic acid biosynthesis and others are plant extracts and unknown compounds. The compounds and the extracts were selected on the basis of loosening of acid fast stain in Mycobacterium smegmatis.
The culture of Mycobacterium smegmatis was frown in nutrient broth containing the sub-lethal concentration (½ MIC) of the compounds/extracts for 48 hrs. The cells were harvested by centrifugation and the pellets were lyophilized. Equal amount of the cells (100 mg) were taken both of control and treated cells and kept for methanolysis overnight as described in Example 1. The extracted hexane layer was allowed to dry and a common stock (5 mg/ml) was used to run a TLC plate to determine how much the inhibition of mycolic acid by calculation the amount of produced mycolic acid by a densitometer.
Compounds, which were showing loosening of acid fast staining, were also tested for spectrophotometric assay. The strain of Mycobacterium smegmatis giving 100% acid fast staining was grown for 48 hours in 50 ml culture media. As described earlier treatment of different compounds were given at sub-lethal concentrations in replicates were also grown for 48 hours. […]
The details of the treatments and the absorbance by different treatments are described in Table 2.

| SMILES | production/synthesis of mycolic acid | absorbance at 495.89 nm |
| --- | --- | --- |
| NNC(=O)c1ccncc1 [Isoniazid] | does not allow the production of mycolic acid | 0 |
| COC1=CC=C2[C@H]3Cc4ccc(OC)c5c4[C@@]2(CCN3C)[C@H]1O5 [Thebaine] | do not allow the synthesis of mycolic acid | 0 |
